# Laboratory results: US12685755B2, “Methods and compositions for treating mucosal tissue disorders” (The University of North Carolina at Chapel Hill, priority 2012, dated 2026)
# Legend:
# [1] = test system: Pseudomonas aeruginosa strain PAO1; test: nitrate dependent growth of PAO1 under anaerobic atmosphere; assay type: cell-based; details: for nitrate dependent growth: LB broth with nitrate, anaerobic atmosphere; for inhibition of growth: anaerobic
# Protocol: FIG. 1. […] Pseudomonas aeruginosa strain PAO1 is capable of growing in the absence of oxygen using nitrate for respiration. […] The studies presented in FIG. 1 examine whether glutathione influences the growth of PAO1 either in the presence or absence of nitrate under either ambient (aerobic) or anaerobic atmospheres. […]
# FIG. 4. […] To examine this possibility, S-nitrosoglutathione (Sigma) was tested for influence on growth of PAO1 in TSBN (1% KNO3) with and without 6.4 mM glutathione.
# (§1) FIG. 7. […] The next series of experiments was designed to determine if there were any influences of ascorbate on glutathione potentiation of the growth inhibition of the RNI (FIGS. 7, 8 and 9).
# CB2 receptor = CB2 receptor (Homo sapiens, UniProt P34972); details: cited from earlier work
# [2] = test system: Pseudomonas aeruginosa strain PAO1; test: aerobic growth of PAO1 in broth in ambient atmosphere; assay type: cell-based; details: for effects on aerobic growth attained by 17 h, single components: each alone: KNO2 to 3.5 mM, glutathione to 5 mM, ascorbate to 2.1 mM
# Excerpt: FIG. 1. […] Pseudomonas aeruginosa strain PAO1 is capable of growing in the absence of oxygen using nitrate for respiration. […] The studies presented in FIG. 1 examine whether glutathione influences the growth of PAO1 either in the presence or absence of nitrate under either ambient (aerobic) or anaerobic atmospheres.
# (§2) FIG. 2. […] To test this possibility, reduced glutathione was titrated vs. increasing concentrations of KNO2 in either trypticase soy broth (TSB) in ambient atmosphere or in trypticase soy broth with nitrate (TSBN) (1% KNO3) under anaerobic atmosphere.
# (§3) FIG. 3. […] These studies examined the question of the importance of the redox state of glutathione to its contributions to the inhibition by RNI and to the blocking of the glucose oxidase antimicrobial effects. Glutathione in either its reduced (GSH) or oxidized (GSSG) form was titrated in the presence or absence of 14 mM nitrite in TSB and PAO1 was grown in ambient atmosphere.
# FIG. 6. […] If NO reacts with glutathione to generate nitrosoglutathione then gassing with NO in the presence of glutathione may be expected to yield greater activity than gassing first and then adding glutathione. To test this effect, LB broth was either pre-gassed with NO followed by titration of GSH or the LB broth aliquots containing various concentrations of GSH were gassed. Titration of NO was accomplished by varying the gassing times of the LB broth.
# as §1
# FIG. 8. […] Ascorbate was titrated over a checkerboard titration of glutathione and KNO2 in LB broth.
# FIG. 9. […] In these experiments, varying concentrations of NO were achieved again by varying the gassing time (10, 15, 30 or 45 min) with 2.3% NO in N2 either in the presence (NO-GSH) or absence (NO-LB) of varying concentrations of glutathione. Glutathione was added to NO-LB in varying concentrations (NO-LB+GSH).
# [3] = test system: Pa Mucoid laboratory derived from PAO1; details: 5% CO2; increasing concentrations of NaHCO3
# Protocol: (§4) FIGS. 10A-B. Influences of bicarbonate on alginate production by different strains of P. aeruginosa under a 5% CO2 atmosphere. Alginate production of selected strains of P. aeruginosa surface grown in a CO2 incubator was quantitatively determined by a colorimetric assay. […] These three strains were then tested for their ability to make alginate under an atmosphere of 5% CO2 with increasing concentrations of NaHCO3(FIG. 10B).
# PAO1 = details: 5% CO2; increasing concentrations of NaHCO3
# Protocol: as §4
# [4] = test system: P. aeruginosa clinical isolate (C3873M)
# Protocol: as §4
# [5] = test system: Pseudomonas aeruginosa strain PAO1; test: glucose oxidase / H2O2 mediated growth inhibition of PAO1; assay type: cell-based
# Excerpt: as §2, §3
# [6] = absence of NO, glutathione and ascorbate concentrations and combinations of the study
# Chain of CB2 receptor (P34972 whole entry): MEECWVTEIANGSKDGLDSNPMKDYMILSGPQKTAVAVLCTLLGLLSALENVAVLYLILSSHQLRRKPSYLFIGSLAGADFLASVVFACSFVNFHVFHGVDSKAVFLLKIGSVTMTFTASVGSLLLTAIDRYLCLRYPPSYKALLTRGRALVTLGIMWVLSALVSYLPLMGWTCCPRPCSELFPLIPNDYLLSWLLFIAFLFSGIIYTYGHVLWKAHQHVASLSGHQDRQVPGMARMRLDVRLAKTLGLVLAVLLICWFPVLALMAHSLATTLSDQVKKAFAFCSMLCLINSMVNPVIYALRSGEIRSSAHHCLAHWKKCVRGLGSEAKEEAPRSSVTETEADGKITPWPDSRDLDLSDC
compound,measurement,setting,value
"N[C@@H](CCC(=O)N[C@@H](CSN=O)C(=O)NCC(=O)O)C(=O)O [GSNO, S-nitrosoglutathione, reference compound]","inhibition of growth, bacterial density (A=650 nm) at 18 h","[1]; GSNO titrated, TSBN (1% KNO3), without glutathione",concentration dependent inhibition
"C=C1CC[C@@H]2[C@@H](C1)c1c(OC)cc(C(C)(C)CCCCCC)cc1OC2(C)C [L-759,656]",CB1/CB2 binding ratio,CB2 receptor,> 1000
"[N]=O [NO, nitric oxide, reference compound]",inhibition of aerobic growth by NO,"[2]; LB broth gassed with NO, absence of glutathione",no discernible inhibition
"O=C1O[C@H]([C@@H](O)CO)C(O)=C1O [ascorbate, ascorbic acid]",decrease in nitrate-dependent growth,[1]; increasing ascorbate in the presence of 2.5 mM glutathione,more pronounced
same,nitrate-dependent growth,"[1]; increasing concentrations of ascorbate, absence of glutathione",dose dependent decrease in nitrate-dependent growth
same,inhibition of growth in ambient atmosphere,"[2]; 0.2 mM ascorbate with 7.5 mM glutathione, presence of nitrate",profound inhibition of growth
same,inhibition of aerobic growth,"[2]; 2.1 mM ascorbate with 7.5 mM glutathione, absence of nitrate",total inhibition
same,inhibitory effects on aerobic growth,[2]; [6],no inhibitory effects
same,effect on inhibition by KNO2 with glutathione,"[2]; ascorbate added to KNO2 and glutathione, LB broth",enhanced
same,effect on aerobic growth attained by 17 h,"[2]; ascorbate added to either glutathione or KNO2, LB broth",no discernible effect
same,enhancement of inhibition of aerobic growth,"[2]; ascorbate titrated, 15 min delivery of NO, 2.5 mM GSH",concentration dependent ascorbate enhancement of inhibition
same,"effects on aerobic growth attained by 17 h, single components",[2]; LB broth,"neither KNO2 to 3.5 mM, glutathione to 5 mM nor ascorbate to 2.1 mM had discernible effects"
same,effect on glutathione reduction of aerobic growth,"[2]; increasing concentrations of ascorbic acid added to glutathione, LB broth",further enhanced
"O=C(O)O [bicarbonate, NaHCO3]",alginate production,[3],significantly enhanced
same,alginate production,PAO1,failed to make alginate
same,alginate production,"[4]; 5% CO2, increasing concentrations of NaHCO3",inhibited
same,alginate production associated with the mucoidy phenotype of P. aeruginosa,[4]; preliminary studies,inhibits the alginate production
"N[C@@H](CCC(=O)N[C@@H](CS)C(=O)NCC(=O)O)C(=O)O [glutathione, N—(N-L-γ-glutamyl-L-cysteinyl)glycine]",growth inhibition of PAO1 by exogenous H2O2,[5]; 14 mM GSH,blocked
same,protection from inhibition with the glucose oxidase system,"[5]; TSB, ambient atmosphere",protected PAO1 from inhibition
same,protection from the growth inhibiting effects of glucose oxidase,[5]; increasing concentration of GSH,protected PAO1
same,growth in an anaerobic atmosphere with nitrate,"[1]; 2.5 mM and lower concentrations of glutathione, absence of ascorbate",permitted growth
same,nitrate dependent growth,[1]; 2.5 mM glutathione or less,no discernible effects
same,nitrate dependent growth,[1]; 5 mM glutathione,total inhibition
same,"effect on GSNO inhibition of growth, bacterial density (A=650 nm) at 18 h","[1]; 6.4 mM glutathione with GSNO, TSBN (1% KNO3)",significantly enhanced
same,nitrate dependent growth,[1]; 7.5 mM glutathione,total inhibition
same,inhibition of growth,"[1]; increasing GSH with nitrite concentrations not totally inhibitory by themselves, TSBN",further inhibition
same,"use of nitrate, nitrite or nitric oxide for growth under anaerobic conditions","[1]; preliminary data, P. aeruginosa","limit the ability of P. aeruginosa to utilize nitrate, nitrite, or nitric oxide to grow under anaerobic conditions"
same,anti-pseudomonal activities of GSNO and other nitric oxide donors,[1]; presence of exogenous glutathione,potentiated
same,"inhibition of aerobic growth, glutathione with NO","[2]; 2.5 mM glutathione, NO titrated by gassing time, LB broth",dose dependent NO inhibition of growth
same,inhibition of aerobic growth,"[2]; 5 mM glutathione and ascorbate, presence versus absence of nitrate",greater inhibition of aerobic growth
same,"inhibition of aerobic growth, glutathione with NO","[2]; 5 mM glutathione, lowest concentration of NO (10 minutes gassing time), LB broth",total inhibition
same,"inhibition of aerobic growth, glutathione with NO","[2]; 5 mM glutathione, lowest concentration of NO, regardless of order of addition",total inhibition of growth
same,"inhibition of growth, glutathione with nitrite","[2]; 6.4 mM GSH and 14 mM KNO2, TSB, ambient atmosphere",significant inhibition
same,growth yield at 14 h,"[2]; 7.5 mM glutathione, LB broth with or without 1% nitrate, aerobic",reduced growth yield
same,"inhibition of growth, glutathione with nitrite","[2]; 12.8 mM GSH and 7 mM KNO2, TSB, ambient atmosphere",significant inhibition
same,inhibition of PAO1 growth in the presence of nitrite,"[2]; 14 mM nitrite, TSB, ambient atmosphere, molar equivalency",inhibition of PAO1 growth
same,enhancement of NO gas inhibition of aerobic growth,"[2]; 0.5 relative concentration of NO, TSB",dose dependent enhancement of inhibition
same,inhibitory effects on aerobic growth,[2]; [6],no inhibitory effects
same,"effects on aerobic growth attained by 17 h, single components",[2]; LB broth,"neither KNO2 to 3.5 mM, glutathione to 5 mM nor ascorbate to 2.1 mM had discernible effects"
same,aerobic growth attained,"[2]; glutathione titrated, LB broth",dose dependent reduction in the aerobic growth
same,lowest glutathione concentration at which synergistic inhibition was evident,"[2]; in the presence of 1.75 mM KNO2, ascorbate titrated, LB broth",2.5 mM
same,enhancement of NO gas inhibition of aerobic growth,"[2]; lower NO concentrations, TSB",not at lower NO concentrations
same,aerobic growth of P. aeruginosa,[2]; nitrite and nitric oxide in the presence of GSH,inhibit the aerobic growth of P. aeruginosa
same,growth yield,"[2]; reduced glutathione titrated, TSB, absence of nitrite","slight, but significant, concentration-dependent increase in growth yield"
"O=N[O-].[K+] [nitrite, KNO2, reference compound]",inhibition of growth,"[1]; KNO2 added, TSBN (1% KNO3), absence of glutathione",significant inhibition
same,inhibitory effects on aerobic growth,"[2]; KNO2 in the presence of glutathione, LB broth",concentration dependent inhibitory effects
same,"effects on aerobic growth attained by 17 h, single components",[2]; LB broth,"neither KNO2 to 3.5 mM, glutathione to 5 mM nor ascorbate to 2.1 mM had discernible effects"
same,lowest KNO2 concentration at which synergistic inhibition was evident,"[2]; in the presence of 5 mM glutathione, ascorbate titrated, LB broth",0.875 mM
same,inhibition of aerobic growth,"[2]; nitrite to 14 mM, absence of glutathione, TSB",no discernible inhibition
